Test system: KRAS-mutant PDC multicell tumor spheroid viability
Assay: Anticancer human tumor 521955-158-R2-J5-PDC patient-derived pancreatic carcinoma cell line growth inhibition [KRAS2]
Conditions: for IC50: curve of first compound; for viability, T/C: stronger effect = lower value
How it was run: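 Combination screen of spheroid viability in tumor-cell co-cultures with endothelial (HUVEC) and mesenchymal stem cell stroma. Each agent was tested in half-log dilutions, topping at clinical Cmax or at 10 microM without a known Cmax.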

[1] = second compound 0.1 µM, first compound 0.0316 µM
[2] = second compound 0.1 µM, first compound 0.1 µM
[3] = second compound 0.1 µM, first compound 0.316 µM
[4] = second compound 0.1 µM, first compound 1 µM
[5] = second compound 0.1 µM, first compound 3.16 µM
[6] = second compound 0.316 µM, first compound 0.0316 µM
[7] = second compound 0.316 µM, first compound 0.1 µM
[8] = second compound 0.316 µM, first compound 0.316 µM
[9] = second compound 0.316 µM, first compound 1 µM
[10] = second compound 0.316 µM, first compound 3.16 µM
[11] = second compound 1 µM, first compound 0.0316 µM
[12] = second compound 1 µM, first compound 0.1 µM
[13] = second compound 1 µM, first compound 0.316 µM
[14] = second compound 1 µM, first compound 1 µM
[15] = second compound 1 µM, first compound 3.16 µM
[16] = second compound 3.16 µM, first compound 0.0316 µM
[17] = second compound 3.16 µM, first compound 0.1 µM
[18] = second compound 3.16 µM, first compound 0.316 µM
[19] = second compound 3.16 µM, first compound 1 µM
[20] = second compound 3.16 µM, first compound 3.16 µM
[21] = second compound 10 µM, first compound 0.0316 µM
[22] = second compound 10 µM, first compound 0.1 µM
[23] = second compound 10 µM, first compound 0.316 µM
[24] = second compound 10 µM, first compound 1 µM
[25] = second compound 10 µM, first compound 3.16 µM
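Further: viability read after seven days of drug exposure.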

Compound	IC50 (second compound 0.1 µM) [nM]	IC50 (second compound 0.316 µM) [nM]	IC50 (second compound 1 µM) [nM]	IC50 (second compound 3.16 µM) [nM]	IC50 (second compound 10 µM) [nM]	viability, T/C [1] [%]	viability, T/C [2] [%]	viability, T/C [3] [%]	viability, T/C [4] [%]	viability, T/C [5] [%]	viability, T/C [6] [%]	viability, T/C [7] [%]	viability, T/C [8] [%]	viability, T/C [9] [%]	viability, T/C [10] [%]	viability, T/C [11] [%]	viability, T/C [12] [%]	viability, T/C [13] [%]	viability, T/C [14] [%]	viability, T/C [15] [%]	other results
CC(C)NCC(C(=O)N1CCN(c2ncnc3c2C(C)CC3O)CC1)c1ccc(Cl)cc1 (stereo not given) + COc1cc2nc(C)nc(NC(C)c3cc(N)cc(C(F)(F)F)c3)c2cc1OC1CCOC1	> 10000	> 10000	> 10000	> 10000	197	89.3	92.2	70.4	75.2	70.9	95.9	86	71.7	67.5	71	81.3	86.6	60.2	64.1	63.7	viability, T/C (second compound 0.1 µM, first compound 10 µM): 56.4%; viability, T/C (second compound 0.316 µM, first compound 10 µM): 60.7%; viability, T/C (second compound 1 µM, first compound 10 µM): 60.8%; viability, T/C [16]: 87.3%; viability, T/C [17]: 93.1%; viability, T/C [18]: 72.2%; viability, T/C [19]: 56.8%; viability, T/C [20]: 59.4%; viability, T/C (second compound 3.16 µM, first compound 10 µM): 43.5%; viability, T/C [21]: 48.7%; viability, T/C [22]: 65.2%; viability, T/C [23]: 43%; viability, T/C [24]: 29.7%; viability, T/C [25]: 14.3%; viability, T/C (second compound 10 µM, first compound 10 µM): 4.84%
CC1COCCN1c1cc(-c2ccnn2C)c2ccnc(-c3ccn[nH]3)c2n1 (stereo not given) + COc1cc2nc(C)nc(NC(C)c3cc(N)cc(C(F)(F)F)c3)c2cc1OC1CCOC1	21.4	21.7	21.4	23	< 10	31.8	9.64	12.1	16.3	20.9	33	8.19	10.6	15.9	22.8	27.7	10.1	11.7	15.6	21.9	viability, T/C (second compound 0.1 µM, first compound 0.01 µM): 85.3%; viability, T/C (second compound 0.316 µM, first compound 0.01 µM): 85%; viability, T/C (second compound 1 µM, first compound 0.01 µM): 93.4%; viability, T/C (second compound 3.16 µM, first compound 0.01 µM): 97.4%; viability, T/C [16]: 31.6%; viability, T/C [17]: 7.75%; viability, T/C [18]: 10.1%; viability, T/C [19]: 16.6%; viability, T/C [20]: 23.1%; viability, T/C (second compound 10 µM, first compound 0.01 µM): 39.6%; viability, T/C [21]: 9.76%; viability, T/C [22]: 4.43%; viability, T/C [23]: 7.6%; viability, T/C [24]: 16%; viability, T/C [25]: 12.9%

Source: PubChem BioAssay AID1963871 (Molecular Pharmacology Branch, DTP, NCI, 2024)
